For the experiment, the system named is CD2F1 mice, L1210 leukemia ip, survival T/C. Nature of the experiment: NCI In Vivo Anticancer Drug Screen. Data for tumor model L1210 Leukemia (intraperitoneal) in CD2F1 (CDF1) mice. Conditions: higher = longer survival. In short, it runs like this: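 Each value reflects a quotient of treated over vehicle control outcomes in mice with a transplanted tumor.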

The mark [1] stands for this setting: endpoint: mean survival time, dose: 100.0 mg/kg/injection, schedule: Q01DX001 (ip), vehicle: saline with Tween-80.
Setting [2] is: endpoint: mean survival time, dose: 100.0 mg/kg/injection, schedule: Q04DX002 (ip), vehicle: saline with Tween-80.
Setting [3] is: endpoint: mean survival time, dose: 200.0 mg/kg/injection, schedule: Q01DX001 (ip), vehicle: saline with Tween-80.
Setting [4] is: endpoint: mean survival time, dose: 200.0 mg/kg/injection, schedule: Q04DX002 (ip), vehicle: saline with Tween-80.
The mark [5] stands for this setting: endpoint: mean survival time, dose: 400.0 mg/kg/injection, schedule: Q01DX001 (ip), vehicle: saline with Tween-80.
Where [6] appears, read: endpoint: mean survival time, dose: 100.0 mg/kg/injection, schedule: Q04DX003 (ip), vehicle: saline with Tween-80.
Where [7] appears, read: endpoint: mean survival time, dose: 200.0 mg/kg/injection, schedule: Q04DX003 (ip), vehicle: saline with Tween-80.
The mark [8] stands for this setting: endpoint: mean survival time, dose: 400.0 mg/kg/injection, schedule: Q04DX003 (ip), vehicle: saline with Tween-80.
The mark [9] stands for this setting: endpoint: mean survival time, dose: 100.0 mg/kg/injection, schedule: Q01DX009 (ip), vehicle: saline with Tween-80.
The mark [10] stands for this setting: endpoint: mean survival time, dose: 200.0 mg/kg/injection, schedule: Q01DX009 (ip), vehicle: saline with Tween-80.
Where [11] appears, read: endpoint: mean survival time, dose: 400.0 mg/kg/injection, schedule: Q01DX009 (ip), vehicle: saline with Tween-80.
Where [12] appears, read: endpoint: mean survival time, dose: 100.0 mg/kg/injection, schedule: Q04DX002 (ip), vehicle: Klucel (hydroxypropylcellulose) (HPC).
The mark [13] stands for this setting: endpoint: mean survival time, dose: 200.0 mg/kg/injection, schedule: Q04DX002 (ip), vehicle: Klucel (hydroxypropylcellulose) (HPC).
[14] abbreviates: endpoint: mean survival time, dose: 50.0 mg/kg/injection, schedule: Q01DX009 (ip), vehicle: Klucel (hydroxypropylcellulose) (HPC).
Setting [15] is: endpoint: mean survival time, dose: 100.0 mg/kg/injection, schedule: Q01DX009 (ip), vehicle: Klucel (hydroxypropylcellulose) (HPC).
Setting [16] is: endpoint: mean survival time, dose: 200.0 mg/kg/injection, schedule: Q01DX009 (ip), vehicle: Klucel (hydroxypropylcellulose) (HPC).
[17] abbreviates: endpoint: mean survival time, dose: 5.0 mg/kg/injection, schedule: Q01DX001 (ip), vehicle: saline.
Setting [18] is: endpoint: mean survival time, dose: 10.0 mg/kg/injection, schedule: Q01DX001 (ip), vehicle: saline.
Setting [19] is: endpoint: mean survival time, dose: 20.0 mg/kg/injection, schedule: Q01DX001 (ip), vehicle: saline.
Where [20] appears, read: endpoint: mean survival time, dose: 40.0 mg/kg/injection, schedule: Q01DX001 (ip), vehicle: saline.

Toxic doses and inconclusive results are not listed. Non-standard residues stand in square brackets, D forms with d. Residues, ends and D or L forms follow the SMILES beside them. ξ: configuration not given here. *: point of attachment. ξF = NC(Cc1ccccc1)C(=O)O; Cbz = O=C(OCc1ccccc1)*

Take `O=[N+]([O-])c1ccc(C2Nc3cc(Cl)c(Cl)cc3S(=O)(=O)N2O)cc1` (stereo not given): the T/C reads like this: under setting [1], 97 % of control; under setting [2], 107 % of control; under setting [3], 96 % of control; under setting [4], 107 % of control; under setting [5], 96 % of control; (endpoint: mean survival time, dose: 400.0 mg/kg/injection, schedule: Q04DX002 (ip), vehicle: saline with Tween-80) 103 % of control.

Take `CCOC(OCC)c1ccccc1` (tested in a mixture with another compound): the T/C was 97 % of control under setting [6], 97 % of control under setting [7] and 97 % of control under setting [8].

For `O=C(Nc1ccc(Br)cc1)c1ccccc1`, the T/C is, setting by setting: under setting [9], 107 % of control; under setting [6], 102 % of control; under setting [10], 94 % of control; under setting [7], 102 % of control; under setting [11], 91 % of control; under setting [8], 100 % of control.

Consider `CC(C)c1cc2ccccc2s1`, for which the T/C is 96 % of control (endpoint: mean survival time, dose: 100.0 mg/kg/injection, schedule: Q01DX001 (ip), vehicle: saline) and 102 % of control (endpoint: mean survival time, dose: 200.0 mg/kg/injection, schedule: Q01DX001 (ip), vehicle: saline).

Turning to `CCCCCCCCCCCCSC#N`, the T/C reads like this: under setting [12], 101 % of control; under setting [2], 96 % of control; under setting [13], 101 % of control; under setting [4], 101 % of control.

On to `O=P(c1ccccc1)(c1ccccc1)c1ccccc1`, for which the T/C is, setting by setting: under setting [9], 97 % of control; under setting [6], 97 % of control; under setting [10], 95 % of control; under setting [7], 100 % of control; under setting [11], 100 % of control.

As to `CCOc1ccc2c(c1)C(C)=CC(C)(C)N2`, the T/C was 95 % of control under setting [6], 104 % of control under setting [7] and 91 % of control under setting [8].

For the compound `O=C(NNC(=O)c1c(F)c(F)c(F)c(F)c1F)c1c(F)c(F)c(F)c(F)c1F`, the T/C by setting is: under setting [9], 97 % of control; under setting [10], 97 % of control.

Turning to `Cc1cccnc1NC1=NCCO1`, the T/C is, setting by setting: under setting [6], 101 % of control; under setting [7], 98 % of control; under setting [8], 98 % of control.

On to `CN(Cc1cnc2nc(N)nc(N)c2n1)c1ccc(C(=O)NC(CCC(=O)NC(CC(=O)O)C(=O)O)C(=O)O)cc1` (stereo not given), for which the T/C (endpoint: mean survival time, dose: 5.0 mg/kg/injection, schedule: Q01DX009 (ip), vehicle: sodium bicarbonate) was 165 % of control and the T/C (endpoint: mean survival time, dose: 10.0 mg/kg/injection, schedule: Q01DX009 (ip), vehicle: sodium bicarbonate) was 151 % of control.

For the compound `Cc1cc2ncn(CO)c2cc1C`, the T/C was 105 % of control under setting [9], 100 % of control under setting [10] and 111 % of control under setting [11].

For the compound `COc1ccc(Cc2ccc(O)cc2)cc1`, the T/C (endpoint: mean survival time, dose: 100.0 mg/kg/injection, schedule: Q01DX009 (ip), vehicle: other) was 101 % of control; the T/C (endpoint: mean survival time, dose: 200.0 mg/kg/injection, schedule: Q01DX009 (ip), vehicle: other) was 101 % of control; the T/C (endpoint: mean survival time, dose: 400.0 mg/kg/injection, schedule: Q01DX009 (ip), vehicle: other) is 104 % of control.

As for `O=C(CNC(=O)OCc1ccccc1)NCC(=O)NC(Cc1ccccc1)C(=O)O` (stereo not drawn) (Cbz-Gly-Gly-[ξF]-OH), the T/C was 96 % of control under setting [6], 93 % of control under setting [7] and 93 % of control under setting [8].

In the case of `COC(=O)C1(C)CCCC2(C)C1CCC13C=C(C(C)C)C(CC1C(=O)O)CC23` (stereo not given), the T/C is 97 % of control under setting [6], 101 % of control under setting [7] and 93 % of control under setting [8].

Regarding `CC(=O)Nc1cc(C)c(C)cc1[N+](=O)[O-]`, the T/C reads like this: under setting [1], 98 % of control; under setting [3], 101 % of control; under setting [5], 98 % of control.

On to `CC(=O)[O][Hg][c]1c(C)c(C)[c]([Hg][O]C(C)=O)c(C)c1C`, for which the T/C (endpoint: mean survival time, dose: 25.0 mg/kg/injection, schedule: Q04DX002 (ip), vehicle: saline with Tween-80) is 87 % of control and the T/C (endpoint: mean survival time, dose: 50.0 mg/kg/injection, schedule: Q04DX002 (ip), vehicle: saline with Tween-80) was 87 % of control.

For the compound `O=C(N/N=C/c1ccc(Cl)cc1Cl)c1ccccc1`, the T/C is 110 % of control under setting [14], 103 % of control under setting [15] and 86 % of control under setting [16].

On to `COC(=O)N(C)c1cccc(OC(=O)N(C)C)c1`, for which the T/C reads like this: under setting [6], 92 % of control; under setting [7], 99 % of control; under setting [8], 99 % of control.

Take `NC(=O)c1[nH]nc(C2OC(COP(=O)(O)O)C(O)C2O)c1O` (stereo not given): the T/C by setting is: (endpoint: median survival time, dose: 6.25 mg/kg/injection, schedule: Q01DX005 (ip), vehicle: saline) 122 % of control; (endpoint: median survival time, dose: 12.5 mg/kg/injection, schedule: Q01DX005 (ip), vehicle: saline) 93 % of control; (endpoint: median survival time, dose: 25.0 mg/kg/injection, schedule: Q01DX005 (ip), vehicle: saline) 93 % of control.

For the compound `N#CC1=C(C#N)C(=O)c2ccccc2C1=O`, the T/C by setting is: (endpoint: mean survival time, dose: 25.0 mg/kg/injection, schedule: Q01DX009 (ip), vehicle: saline with Tween-80) 98 % of control; (endpoint: mean survival time, dose: 50.0 mg/kg/injection, schedule: Q01DX009 (ip), vehicle: saline with Tween-80) 97 % of control; under setting [9], 88 % of control.

As to `Cc1ccc2c(ccc3nc(N)nc(N)c32)c1`, the T/C under setting [17] is 100 % of control, the T/C under setting [18] was 89 % of control, the T/C under setting [19] is 95 % of control and the T/C under setting [20] is 95 % of control.

As to `CN(C)CCCC1c2ccccc2Oc2ccc(C(F)(F)F)cc21` (stereo not given), the T/C by setting is: (endpoint: mean survival time, dose: 1.56 mg/kg/injection, schedule: Q01DX009 (ip), vehicle: saline) 96 % of control; (endpoint: mean survival time, dose: 3.12 mg/kg/injection, schedule: Q01DX009 (ip), vehicle: saline) 100 % of control; (endpoint: mean survival time, dose: 6.25 mg/kg/injection, schedule: Q01DX009 (ip), vehicle: saline) 94 % of control; (endpoint: mean survival time, dose: 12.5 mg/kg/injection, schedule: Q01DX009 (ip), vehicle: saline) 100 % of control; (endpoint: mean survival time, dose: 25.0 mg/kg/injection, schedule: Q01DX009 (ip), vehicle: saline) 103 % of control.

Regarding `O=C1OC2(c3ccc(Cl)cc3Oc3cc(Cl)ccc32)c2ccccc21`, the T/C is 101 % of control under setting [12]; 97 % of control under setting [13]; 89 % of control (endpoint: mean survival time, dose: 400.0 mg/kg/injection, schedule: Q04DX002 (ip), vehicle: Klucel (hydroxypropylcellulose) (HPC)).

With `CCC[CH2][Sn]1([CH2]CCC)[O]c2ccccc2[O]1`, the T/C is 100 % of control (endpoint: mean survival time, dose: 1.56 mg/kg/injection, schedule: Q04DX002 (ip), vehicle: saline with Tween-80); 96 % of control (endpoint: mean survival time, dose: 3.12 mg/kg/injection, schedule: Q04DX002 (ip), vehicle: saline with Tween-80); 98 % of control (endpoint: mean survival time, dose: 6.25 mg/kg/injection, schedule: Q04DX002 (ip), vehicle: saline with Tween-80); 113 % of control (endpoint: mean survival time, dose: 12.5 mg/kg/injection, schedule: Q04DX002 (ip), vehicle: saline with Tween-80).

In the case of `CC1=NNC(C)(C)C1`, the T/C (endpoint: mean survival time, dose: 25.0 mg/kg/injection, schedule: Q01DX009 (ip), vehicle: Klucel (hydroxypropylcellulose) (HPC)) was 96 % of control; the T/C under setting [14] was 97 % of control; the T/C under setting [15] is 92 % of control; the T/C (endpoint: mean survival time, dose: 100.0 mg/kg/injection, schedule: Q01DX009 (ip), vehicle: saline) is 102 % of control; the T/C under setting [16] was 97 % of control; the T/C (endpoint: mean survival time, dose: 200.0 mg/kg/injection, schedule: Q01DX009 (ip), vehicle: saline) was 105 % of control. In addition, the T/C is, setting by setting: (endpoint: mean survival time, dose: 400.0 mg/kg/injection, schedule: Q01DX009 (ip), vehicle: Klucel (hydroxypropylcellulose) (HPC)) 97 % of control; (endpoint: mean survival time, dose: 400.0 mg/kg/injection, schedule: Q01DX009 (ip), vehicle: saline) 103 % of control.

Take `OCCN(CCO)c1ccc(O)cc1`: the T/C under setting [17] was 92 % of control; the T/C under setting [18] is 92 % of control; the T/C under setting [19] is 92 % of control; the T/C under setting [20] is 92 % of control; the T/C (endpoint: mean survival time, dose: 75.0 mg/kg/injection, schedule: Q01DX001 (ip), vehicle: saline) is 103 % of control; the T/C (endpoint: mean survival time, dose: 150.0 mg/kg/injection, schedule: Q01DX001 (ip), vehicle: saline) is 101 % of control.

Values taken from PubChem BioAssay AID256 (DTP/NCI, 2004).
